Earlier results on two compounds are cited in patent US20250312405A1, “FOOD SUPPLEMENT COMPRISING NEOHESPERIDIN DIHYROCHALCONE AND PEPPERMINT OIL” (priority 2022, published 2025).

SMILES strings stand for the structures.

In data set [1] the test system is Campylobacter jejuni. Conditions: doses of 0.25 mM.
Data set [2] relates to Campylobacter jejuni. Conditions: dose of 0.2 mM.
In data set [3] the test system is HT-29 cells co-cultured with immune cells. Conditions: doses of 50 μmoles.

Consider `Cc1ccc(C(C)C)cc1O` [carvacrol], for which the “effect on the motility of Campylobacter jejuni” value in data set [1] is “had an effect on the motility”. Besides, the cell invasion entry in data set [2] is recorded as “reduced cell invasion”. Regarding `COc1cc(/C=C/C(=O)CC(=O)/C=C/c2ccc(O)c(OC)c2)ccc1O` [curcumin], the “immune-induced epithelial disfunction by Campylobacter jejuni” value in data set [3] is recorded as “mitigates the immune-induced epithelial disfunction”.
